In ChEMBL document CHEMBL1201862, “PubChem BioAssay data set” (2004):
Calls of active or inactive are those of the source.

How the values were obtained:
Caspase-7 = Caspase-7 (Homo sapiens, UniProt P55210); test: human caspase-7 inhibitors, dose response, selectivity assay for caspase-6 inhibitor project, biochemical, DEVD-R110 fluorescence, cherry-pick (AID 743295)
Cytochrome P450 3A4 = Cytochrome P450 3A4 (Homo sapiens, UniProt P08684); conditions: Potency;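 also: confirmatory qHTS run detecting inhibitors and substrates of CYP3A4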
Cytochrome P450 3A4, sequence (P08684 whole entry): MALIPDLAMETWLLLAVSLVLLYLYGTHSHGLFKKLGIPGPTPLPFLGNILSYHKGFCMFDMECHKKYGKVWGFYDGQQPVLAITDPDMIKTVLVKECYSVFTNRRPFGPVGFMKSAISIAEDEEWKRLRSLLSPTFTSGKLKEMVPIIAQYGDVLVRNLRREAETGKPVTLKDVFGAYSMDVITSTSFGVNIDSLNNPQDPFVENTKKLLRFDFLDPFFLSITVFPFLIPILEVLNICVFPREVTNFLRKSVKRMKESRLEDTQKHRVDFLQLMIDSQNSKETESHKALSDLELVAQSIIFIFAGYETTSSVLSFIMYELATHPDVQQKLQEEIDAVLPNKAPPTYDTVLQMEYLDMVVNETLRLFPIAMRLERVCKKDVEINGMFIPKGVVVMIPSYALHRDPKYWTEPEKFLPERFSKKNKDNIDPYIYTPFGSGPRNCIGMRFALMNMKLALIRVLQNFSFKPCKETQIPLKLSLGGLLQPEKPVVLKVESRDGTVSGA

[1] = biological target: Dual specificity protein phosphatase 3 (Homo sapiens, UniProt P51452); test: VHR1 phosphatase inhibitors, biochemical (AID 1878)
Dual specificity protein phosphatase 3, sequence (P51452 whole entry): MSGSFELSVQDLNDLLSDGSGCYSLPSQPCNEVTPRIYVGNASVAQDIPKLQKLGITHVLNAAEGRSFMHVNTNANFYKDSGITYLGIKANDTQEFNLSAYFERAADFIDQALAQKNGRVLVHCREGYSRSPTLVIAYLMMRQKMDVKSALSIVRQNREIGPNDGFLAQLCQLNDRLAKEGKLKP

[2] = biological target: T1, Endoribonuclease toxin MazF (Escherichia coli K-12, UniProt P0AE70); test: MazF toxin RNase activators, dose response, biochemical, fluorescence, single-stranded RNA substrate, uHTS hits (AID 588481); assay type: functional
T1 sequence (P0AE70 whole entry): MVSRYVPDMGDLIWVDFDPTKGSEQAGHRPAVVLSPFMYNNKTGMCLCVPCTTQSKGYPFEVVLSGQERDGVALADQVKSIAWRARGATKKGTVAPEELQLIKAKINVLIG

Albumin = Albumin (Bos taurus, UniProt P02769); test: Counterscreen for inhibitors of T-cell receptor (TCR)-CD3 interaction: Fluorescence-based biochemical high throughput dose response assay to identify inhibitors of T-cell receptor (TCR)-CD3 interaction using a TAMRA-labeled BSA probe.; assay type: functional
Albumin, sequence (P02769 whole entry): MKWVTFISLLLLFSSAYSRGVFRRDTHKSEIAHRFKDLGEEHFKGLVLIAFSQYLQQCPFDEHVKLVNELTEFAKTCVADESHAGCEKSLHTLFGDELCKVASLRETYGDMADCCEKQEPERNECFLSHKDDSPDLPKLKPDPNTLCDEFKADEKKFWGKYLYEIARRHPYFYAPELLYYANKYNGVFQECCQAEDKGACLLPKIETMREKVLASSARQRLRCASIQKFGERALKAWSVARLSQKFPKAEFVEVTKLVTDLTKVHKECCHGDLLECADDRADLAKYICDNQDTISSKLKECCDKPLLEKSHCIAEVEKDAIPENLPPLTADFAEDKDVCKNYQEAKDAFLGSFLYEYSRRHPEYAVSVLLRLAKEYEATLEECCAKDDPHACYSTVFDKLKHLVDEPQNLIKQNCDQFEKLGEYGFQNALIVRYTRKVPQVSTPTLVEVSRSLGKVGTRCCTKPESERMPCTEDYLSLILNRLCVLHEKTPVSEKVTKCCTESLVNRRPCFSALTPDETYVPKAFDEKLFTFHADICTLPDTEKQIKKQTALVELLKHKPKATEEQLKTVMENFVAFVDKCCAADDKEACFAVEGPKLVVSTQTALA

HeLa = test: HeLa cell cytotoxicity, dose response, cytotoxicity control, 24 h, cherry-picked samples (AID 504726); assay type: functional, cell-based; conditions: Homo sapiens;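 also: potency for cytotoxicity as loss of luminescence signal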
[3] = biological target: Bifunctional protein GlmU (Mycobacterium tuberculosis, UniProt P9WMN3); test: Inhibitors of Mycobacterial Glucosamine-1-phosphate acetyl transferase (GlmU). Secondary screen.; set-up: species or system Mycobacterium tuberculosis H37Rv
Bifunctional protein GlmU, sequence (P9WMN3 whole entry): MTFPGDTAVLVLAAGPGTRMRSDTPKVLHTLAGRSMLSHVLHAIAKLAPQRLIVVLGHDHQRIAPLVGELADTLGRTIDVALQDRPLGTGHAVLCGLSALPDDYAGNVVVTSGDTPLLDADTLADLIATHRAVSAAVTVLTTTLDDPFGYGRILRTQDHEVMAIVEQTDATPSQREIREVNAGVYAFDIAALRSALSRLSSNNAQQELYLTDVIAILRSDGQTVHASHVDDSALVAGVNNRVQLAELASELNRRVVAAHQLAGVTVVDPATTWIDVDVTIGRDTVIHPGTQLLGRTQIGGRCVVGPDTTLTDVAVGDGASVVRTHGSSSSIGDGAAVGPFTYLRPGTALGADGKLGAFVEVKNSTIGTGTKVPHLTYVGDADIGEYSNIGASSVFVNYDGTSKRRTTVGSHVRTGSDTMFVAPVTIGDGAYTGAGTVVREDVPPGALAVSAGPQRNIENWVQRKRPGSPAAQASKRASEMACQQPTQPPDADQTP

Salmon testes DNA = test: DNA intercalators displacing acridine orange, dose response, artefact control for KSHV LANA DNA-binding inhibitor project, biochemical, fluorescence polarization, cherry-picked samples, set 2 (AID 504727); set-up: species or system Salmonidae
[4] = biological target: T2, Histone-lysine N-methyltransferase NSD2 (Homo sapiens, UniProt O96028); assay type: biochemical
T2 sequence (O96028 whole entry): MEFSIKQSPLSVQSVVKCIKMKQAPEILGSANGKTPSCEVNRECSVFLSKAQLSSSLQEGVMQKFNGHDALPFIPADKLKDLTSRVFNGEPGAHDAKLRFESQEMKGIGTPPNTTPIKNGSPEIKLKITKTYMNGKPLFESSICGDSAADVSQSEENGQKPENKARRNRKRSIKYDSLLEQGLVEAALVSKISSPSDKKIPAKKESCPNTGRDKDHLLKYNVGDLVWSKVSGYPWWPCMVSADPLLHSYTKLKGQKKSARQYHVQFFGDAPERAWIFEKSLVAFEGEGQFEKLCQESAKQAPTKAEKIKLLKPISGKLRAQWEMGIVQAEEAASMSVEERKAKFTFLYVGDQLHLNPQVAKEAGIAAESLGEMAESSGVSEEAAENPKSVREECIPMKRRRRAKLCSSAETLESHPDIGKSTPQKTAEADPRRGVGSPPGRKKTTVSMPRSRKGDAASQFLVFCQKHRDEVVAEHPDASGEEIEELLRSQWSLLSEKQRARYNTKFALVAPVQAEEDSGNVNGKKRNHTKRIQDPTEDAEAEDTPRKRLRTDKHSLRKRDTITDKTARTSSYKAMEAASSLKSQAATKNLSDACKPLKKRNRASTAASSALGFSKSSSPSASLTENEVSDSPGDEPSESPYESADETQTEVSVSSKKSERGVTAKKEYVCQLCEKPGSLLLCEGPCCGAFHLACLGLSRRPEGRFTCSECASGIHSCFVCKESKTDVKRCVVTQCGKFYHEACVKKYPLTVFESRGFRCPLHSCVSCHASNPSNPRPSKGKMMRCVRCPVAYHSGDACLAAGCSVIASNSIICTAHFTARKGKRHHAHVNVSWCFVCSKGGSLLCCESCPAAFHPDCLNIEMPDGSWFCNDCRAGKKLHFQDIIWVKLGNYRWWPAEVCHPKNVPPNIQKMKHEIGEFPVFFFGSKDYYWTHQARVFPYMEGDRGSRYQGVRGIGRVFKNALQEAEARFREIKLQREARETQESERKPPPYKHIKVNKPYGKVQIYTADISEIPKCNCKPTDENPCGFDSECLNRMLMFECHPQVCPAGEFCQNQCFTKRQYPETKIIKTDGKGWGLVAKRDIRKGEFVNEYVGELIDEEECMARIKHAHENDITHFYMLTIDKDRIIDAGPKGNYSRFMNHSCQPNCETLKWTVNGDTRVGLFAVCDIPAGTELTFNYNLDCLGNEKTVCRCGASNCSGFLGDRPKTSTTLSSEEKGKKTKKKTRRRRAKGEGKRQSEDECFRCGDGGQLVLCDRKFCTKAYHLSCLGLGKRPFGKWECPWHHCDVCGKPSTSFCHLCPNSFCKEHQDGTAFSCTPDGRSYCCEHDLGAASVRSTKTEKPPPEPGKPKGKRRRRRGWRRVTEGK

[5] = biological target: Polyadenylate-binding protein 1 (Homo sapiens, UniProt P11940); test: PABP1 MLLE–PAM2 binding inhibitor potency, dose response, biochemical, fluorescence polarization, FITC-PAM2 peptide (AID 602259); assay type: functional; conditions: read-out: IC50_Mean
Polyadenylate-binding protein 1, sequence (P11940 whole entry): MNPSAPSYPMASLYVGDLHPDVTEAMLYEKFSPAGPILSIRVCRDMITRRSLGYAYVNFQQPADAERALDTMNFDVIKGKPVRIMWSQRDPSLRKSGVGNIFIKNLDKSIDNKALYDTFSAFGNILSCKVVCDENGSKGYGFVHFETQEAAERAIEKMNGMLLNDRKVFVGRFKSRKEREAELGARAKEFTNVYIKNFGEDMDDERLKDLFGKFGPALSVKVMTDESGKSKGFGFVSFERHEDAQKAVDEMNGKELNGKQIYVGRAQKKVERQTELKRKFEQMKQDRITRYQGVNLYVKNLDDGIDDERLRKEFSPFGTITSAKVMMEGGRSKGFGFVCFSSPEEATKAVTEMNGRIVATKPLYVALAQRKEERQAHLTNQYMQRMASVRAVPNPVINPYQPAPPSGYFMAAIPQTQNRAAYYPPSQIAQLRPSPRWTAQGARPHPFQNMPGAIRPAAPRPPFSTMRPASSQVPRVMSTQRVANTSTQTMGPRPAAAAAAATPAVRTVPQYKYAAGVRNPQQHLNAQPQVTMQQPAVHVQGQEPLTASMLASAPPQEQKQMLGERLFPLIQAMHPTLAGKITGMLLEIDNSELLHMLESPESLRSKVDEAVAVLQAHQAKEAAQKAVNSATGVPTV

Caspase-7, sequence (P55210 24-198 limits assumed): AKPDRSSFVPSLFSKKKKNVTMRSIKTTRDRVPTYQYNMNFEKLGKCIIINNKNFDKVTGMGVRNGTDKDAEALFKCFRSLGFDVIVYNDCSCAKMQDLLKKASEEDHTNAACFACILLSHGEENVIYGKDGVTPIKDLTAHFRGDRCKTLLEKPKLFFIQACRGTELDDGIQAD
Caspase-7, sequence (P55210 207-303 limits assumed): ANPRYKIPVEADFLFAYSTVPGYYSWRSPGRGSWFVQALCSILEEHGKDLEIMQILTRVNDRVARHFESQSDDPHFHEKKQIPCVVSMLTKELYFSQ

O=c1c(O)cccc2cc(O)c(O)c(O)c12 [PURPUROGALLIN]
AC50 (Caspase-7): 1.09 µM (active) | AC50 (Cytochrome P450 3A4): 31.6 µM (inconclusive) | IC50 [1]: < 1.23 µM (inactive) | EC50 [2]: 80.3 µM (inactive) | IC50 (Albumin): > 94.1 µM (inactive) | AC50 (HeLa): 103 µM (active) | IC50 [3]: 21.5 µM (active) | AC50 (Salmon testes DNA): 49.9 µM (active) | AC50 [4]: 0.532 µM (active) | IC50 [5]: 47.9 µM (inactive)
